# According to PMC3358478 (Chemical Research in Toxicology, 2012):
# Entries after “also recorded” stand apart in the source; their conditions may differ.
# What was measured:
# [1] = biological target: T1, Human P450 2A6 (Homo sapiens, UniProt P11509); test: Coumarin 7-hydroxylation assay, P450 2A6 inhibition
# T1 sequence (P11509 1-494): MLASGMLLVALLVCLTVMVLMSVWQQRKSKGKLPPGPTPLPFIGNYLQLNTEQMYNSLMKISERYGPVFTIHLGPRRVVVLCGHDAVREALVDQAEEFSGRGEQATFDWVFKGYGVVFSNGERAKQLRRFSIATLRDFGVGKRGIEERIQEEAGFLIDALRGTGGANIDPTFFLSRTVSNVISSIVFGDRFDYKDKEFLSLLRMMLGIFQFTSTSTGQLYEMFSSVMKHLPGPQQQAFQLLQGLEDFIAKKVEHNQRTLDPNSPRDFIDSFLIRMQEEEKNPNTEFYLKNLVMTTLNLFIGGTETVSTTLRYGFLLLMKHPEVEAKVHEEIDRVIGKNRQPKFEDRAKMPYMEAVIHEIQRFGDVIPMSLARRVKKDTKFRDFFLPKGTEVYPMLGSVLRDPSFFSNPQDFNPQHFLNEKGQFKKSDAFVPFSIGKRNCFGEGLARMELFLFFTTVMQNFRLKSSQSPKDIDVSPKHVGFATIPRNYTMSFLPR
# [2] = biological target: T2, rat P450 2B1 (Rattus norvegicus, UniProt P00176); test: Pentoxyresorufin O-depentylation; format: biochemical; settings: for inhibition behavior toward P450 2B1: time-dependence
# T2 sequence (P00176 1-491): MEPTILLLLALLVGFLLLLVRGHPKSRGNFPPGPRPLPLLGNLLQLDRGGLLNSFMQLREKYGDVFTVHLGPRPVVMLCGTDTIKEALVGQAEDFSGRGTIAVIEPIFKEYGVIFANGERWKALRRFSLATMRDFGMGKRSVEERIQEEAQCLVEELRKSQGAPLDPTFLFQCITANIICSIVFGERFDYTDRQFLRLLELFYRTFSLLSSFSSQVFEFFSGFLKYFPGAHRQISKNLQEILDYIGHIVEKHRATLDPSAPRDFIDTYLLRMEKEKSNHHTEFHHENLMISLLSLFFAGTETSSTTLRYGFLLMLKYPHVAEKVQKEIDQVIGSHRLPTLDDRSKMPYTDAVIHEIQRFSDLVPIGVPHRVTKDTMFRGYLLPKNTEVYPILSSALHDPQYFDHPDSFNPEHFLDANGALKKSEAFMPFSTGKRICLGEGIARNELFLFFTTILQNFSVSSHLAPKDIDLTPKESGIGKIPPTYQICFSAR
# [3] = biological target: T3, Human P450 1A2 (Homo sapiens, UniProt P05177); test: Methoxyresorufin O-demethylation; format: biochemical; settings: for inhibition behavior toward P450 1A2: concentration- and NADPH-dependence; for difference in the IC50 values, more effective on P450 1A2 than P450 1A1: IC50 1A1 vs 1A2
# T3 sequence (P05177 1-516): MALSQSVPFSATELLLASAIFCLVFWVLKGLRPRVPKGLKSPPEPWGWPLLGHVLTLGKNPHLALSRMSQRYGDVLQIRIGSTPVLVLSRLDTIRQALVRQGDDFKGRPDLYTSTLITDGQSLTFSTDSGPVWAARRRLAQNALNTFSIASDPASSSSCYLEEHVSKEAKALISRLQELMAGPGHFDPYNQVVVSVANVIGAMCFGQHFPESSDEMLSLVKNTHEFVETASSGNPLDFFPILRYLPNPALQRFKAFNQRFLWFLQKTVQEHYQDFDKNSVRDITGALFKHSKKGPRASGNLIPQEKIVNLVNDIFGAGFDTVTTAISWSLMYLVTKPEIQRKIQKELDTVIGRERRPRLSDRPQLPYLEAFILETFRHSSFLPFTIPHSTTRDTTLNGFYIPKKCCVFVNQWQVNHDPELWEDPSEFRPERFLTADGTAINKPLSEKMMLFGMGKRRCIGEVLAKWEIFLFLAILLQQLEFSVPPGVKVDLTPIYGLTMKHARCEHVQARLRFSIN
# [4] = biological target: T4, Human P450 1A1 (Homo sapiens, UniProt P04798); test: Ethoxyresorufin O-deethylation; format: biochemical; settings: for kinact: read-out: limiting Kinact on P450 1A1
# T4 sequence (P04798 1-512): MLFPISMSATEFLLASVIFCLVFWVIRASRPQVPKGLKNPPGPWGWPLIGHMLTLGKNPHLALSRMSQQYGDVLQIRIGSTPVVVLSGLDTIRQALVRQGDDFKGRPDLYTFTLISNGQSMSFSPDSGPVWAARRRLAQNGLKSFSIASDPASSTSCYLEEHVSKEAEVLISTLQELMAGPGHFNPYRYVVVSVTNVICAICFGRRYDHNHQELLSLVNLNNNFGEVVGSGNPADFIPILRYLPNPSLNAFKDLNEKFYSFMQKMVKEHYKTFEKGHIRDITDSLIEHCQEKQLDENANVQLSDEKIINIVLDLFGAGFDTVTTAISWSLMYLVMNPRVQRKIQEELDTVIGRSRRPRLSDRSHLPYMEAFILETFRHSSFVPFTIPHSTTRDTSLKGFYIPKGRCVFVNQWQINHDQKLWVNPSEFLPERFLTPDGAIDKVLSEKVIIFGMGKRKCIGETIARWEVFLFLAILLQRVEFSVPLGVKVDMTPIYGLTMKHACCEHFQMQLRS
Structure (SMILES),IC50 [1] [µM],IC50 [2] [µM],Ki [3] [µM],Ki [4] [µM],kinact [4] [s⁻¹],kinact ([2]; read-out: limiting Kinact on P450 2B1) [s⁻¹],inhibition behavior toward P450 2B1 [2],inhibition behavior toward P450 1A2 [3],"difference in the IC50 values, more effective on P450 1A2 than P450 1A1 [3]",potency toward P450 1A1 relative to P450 1A2 ([4]; IC50 1A2 vs 1A1),inhibition activity for P450 2A6 ([1]; at the dose of 50 μM),inhibition activity for P450 2B1 ([2]; at the dose of 50 μM),"inhibition behavior toward P450 1A1 ([4]; time-, concentration- and NADPH-dependence)"
"C#Cc1ccc2ccc(=O)oc2c1 [7EC, 7-Ethynylcoumarin]",> 50,> 50,5.83,–,–,–,–,–,–,–,–,–,–
"C#Cc1cc2oc(=O)ccc2cc1OC [7E6MOC, 7-Ethynyl-6-methoxycoumarin]",> 50,> 50,78.9,104,0.00567,–,–,–,–,–,–,–,–
"C#Cc1ccc2c(-c3ccccc3)c(C)c(=O)oc2c1 [7E3M4PC, 7-Ethynyl-3-methyl-4-phenylcoumarin]",> 50,9.16,–,3.58,0.00617,0.00483,sole mechanism-based inhibitor,does not show a time-dependent loss of enzymatic activity; also recorded: sole competitive inhibitor; also recorded: does not show time- and NADPH-dependent inhibition; also recorded: completely competitive,–,–,–,–,–
"C#Cc1ccc2c(C)cc(=O)oc2c1 [7E4MC, 7-Ethynyl-4-methylcoumarin]",> 50,> 50,2.65,38.6,0.0035,–,–,–,around 5 fold,–,–,–,–
"C#Cc1ccc2cc(-c3ccccc3)c(=O)oc2c1 [7E3PC, 7-Ethynyl-3-phenylcoumarin]",> 50,> 50,0.65,0.38,0.00417,–,–,mainly results from competitive inhibition and not from mechanism-based inhibition,–,about five times more potent,–,–,–
"C#Cc1ccc2c(C(F)(F)F)cc(=O)oc2c1 [7E4TFC, 7-Ethynyl-4-(trifluoromethyl)coumarin]",> 50,15.1,3.15,16.8,0.00383,–,competitive inhibitor,–,around 5 fold,–,–,–,–
"C#Cc1ccc2c(C)c(-c3ccccc3)c(=O)oc2c1 [7E4M3PC, 7-Ethynyl-4-methyl-3-phenylcoumarin]",> 50,> 50,0.83,5.16,0.00517,–,–,–,–,–,–,–,–
"C#Cc1ccc2c(C)c(C)c(=O)oc2c1C [7ETMC, 7-Ethynyl-3,4,8-trimethylcoumarin]",> 50,> 50,0.87,0.57,0.00567,–,–,–,–,–,did not show any inhibition activity,did not show any inhibition activity,time-dependent inhibition; also recorded: NADPH-dependent manner
